Laboratory results published in patent publication EP4803080A1, “METHOD FOR TREATING LEUKEMIA” (Shenzhen TargetRx Co., Ltd., priority 2023, dated 2025).
Where two headings read alike, the source gives them in different places.

How the values were obtained:
Ba/F3 BCR-ABL1 T315M = test: Cell growth inhibition activity test, single agents and combinations (CellTiter-Glo, Chou-Talalay); type: cell-based, mouse; conditions: Mus musculus, BaF3, 72 h, single agent; T315M; 72 hours; read-out: IC50
Method: (§1) A series of cell lines expressing BCR-ABL1 single mutations and compound mutations were constructed based on the Ba/F3 mouse pro-B cell line.
(§2) This assay utilized the CellTiter-Glo (CTG) kit provided by Promega, which is a homogeneous method for cell viability detection, measuring the viability of cultured cells by quantifying ATP. Cells were seeded in 96-well plates and treated with different concentrations of test substances. […] At the end of the treatment, CTG reagent (CellTiter-Glo kit) was added according to the manufacturer's instructions to detect cell viability values. Plates were read on a microplate reader (Biotek cytation 3.0). IC50 values were calculated using GraphPad Prism 7.0 software.

[1] = tested on: Ba/F3 BCR-ABL1 Y253H/T315I; test: as above; type: cell-based, mouse; conditions: BCR-ABL1 Y253H/T315I, read-out: IC50^I1
Method: as §1, §2

[2] = tested on: chronic phase (CP) chronic myeloid leukemia (CML); test: Phase I dose escalation and dose expansion clinical trial: efficacy in CML-CP subjects; type: in vivo, humans
Excerpt: This study is a single-arm, open-label, dose-escalation and dose-expansion Phase I clinical trial.
The dose-escalation phase of this trial consists of about 8 dose groups, with oral administration under fasting conditions. Subjects in all dose groups will receive a single dose on Day 1 (D1), followed by pharmacokinetic (PK) and tolerability observations. […] After entering the multiple-dose period, subjects in the first dose group will initially receive twice-daily (BID) dosing (if PK data from the single-dose period are available, the dosing frequency during the multiple-dose period may be adjusted based on the PK data). The dosing frequency for subjects in subsequent dose groups after entering the multiple-dose period will be determined based on available PK and tolerability data. Throughout the trial, dosing frequency for all subjects may be adjusted based on continuously updated safety and PK data.
A continuous reassessment method (CRM) based on the principle of the escalation with overdose control (EWOC) design will be used to recommend the next specific dose for each dose escalation, thereby completing dose escalation and determining the maximum tolerated dose (MTD). If both the investigator and sponsor believe that higher dose groups may offer better efficacy and manageable safety, the EWOC-based CRM method may be used to explore higher doses. All enrolled subjects will receive long-term treatment with the test drug and undergo evaluations for safety, tolerability, and preliminary efficacy.
After obtaining certain research data from the dose-escalation phase, the investigator may comprehensively consider safety, efficacy, and other information to decide whether to enroll additional subjects at the MTD and/or lower dose levels to determine the recommended Phase II dose (RP2D). Two to four suitable dosing regimens will be selected for expansion in the target population (including subjects enrolled at the target dose levels during the escalation phase).
A total of 8 dose groups were established: 10 mg bid, 20 mg bid, 40 mg bid, 80 mg bid, 40 mg qd, 80 mg qd, 160 mg qd, and 240 mg qd.
The dose expansion phase was conducted in the following 3 cohorts: • Cohort 1: Subjects with chronic phase (CP) chronic myeloid leukemia (CML) who had previously received at least ≥2 different TKIs and were T315I-negative. A total of 3 dose groups were established: 40 mg qd, 80 mg qd, and 240 mg qd; • Cohort 2: Subjects with chronic phase (CP) chronic myeloid leukemia (CML) who have previously received ≥1 TKI and were T315I-positive. A total of 2 dose groups were established: 40 mg qd and 240 mg qd; • Cohort 3: Subjects with accelerated phase (AP) chronic myeloid leukemia (CML) who have previously received ≥1 TKI, regardless of T315I positivity. A total of 1 dose group was established: 240 mg qd.

[3] = CML-CP subjects previously treated with ponatinib, olverembatinib, asciminib, and/or HS-10382, as of June 2, 2024
[4] = CML-CP subjects, all doses, 58 evaluable, as of August 24, 2023
[5] = CML-CP subjects, all doses, as of August 24, 2023
[6] = CML-CP subjects, as of June 2, 2024
[7] = CML-CP, 10 mg BID, 2 evaluable subjects, as of August 24, 2023
[8] = CML-CP, 20 mg BID, 3 evaluable subjects, as of August 24, 2023
[9] = CML-CP, 40 mg BID, 1 evaluable subject, as of August 24, 2023
[10] = CML-CP, 40 mg QD, 15 evaluable subjects, as of August 24, 2023
[11] = CML-CP, 40 mg/day Total, 18 evaluable subjects, as of August 24, 2023
[12] = CML-CP, 80 mg BID, 3 evaluable subjects, as of August 24, 2023
[13] = CML-CP, 80 mg QD, 2 evaluable subjects, as of August 24, 2023
[14] = CML-CP, 80 mg/day Total, 3 evaluable subjects, as of August 24, 2023
[15] = CML-CP, 160 mg QD, 1 evaluable subject, as of August 24, 2023
[16] = CML-CP, 160 mg/day Total, 4 evaluable subjects, as of August 24, 2023
[17] = CML-CP, 240 mg QD, 31 evaluable subjects, as of August 24, 2023
[18] = CML-CP, Total, all dose groups, 58 evaluable subjects, as of August 24, 2023

Work on `O=C(Nc1ccc(OC(F)(F)Cl)cc1)c1cnc(N2CC[C@@H](F)C2)c(-c2cnccn2)c1` [Compound A, (R)-N-(4-(chlorodifluoromethoxy)phenyl)-6-(3-fluoropyrrolidin-1-yl)-5-(pyrazin-2-yl)nicotinamide] yielded an IC50 (Ba/F3 BCR-ABL1 T315M) greater than 1000 nM, an IC50 ([1]; IC50 of Compound A (I1) in Combination with olverembatinib (I2)) of 65.3 nM and an IC50 ([1]; IC50 of Compound A (I1) in Combination with ponatinib (I2)) of 166 nM. The IC50 ([1]; Mus musculus, BaF3, 72 h, Monotherapy (Table 12)) was 12300 nM, the “18-month cumulative incidence of CCyR” value [2, 3] was 17% and the “18-month cumulative incidence of MCyR” value [2, 3] was 32%. For the same compound, the CHR ([2]; CML-CP subjects, all doses, 35 evaluable, as of August 24, 2023) was 91.4%, the CCyR [2, 4] was 34.5% and the MCyR [2, 4] was 39.7%. The MMR ([2]; CML-CP subjects, all doses, 62 evaluable, as of August 24, 2023) was 16.1%, the “median time to CCyR” value [2, 5] was 2.81 (2.76, 3.30) months and the “median time to MCyR” value [2, 5] was 2.83 (2.76, 3.68) months. The “median time to MMR” value [2, 5] was 2.81 (2.76, 5.49) months, the “CHR within 3 treatment cycles” value ([2]; CML-CP subjects, 49 evaluable, as of June 2, 2024) was 82% and the “18-month cumulative incidence rate for CCyR” value [2, 6] was 40%. The “18-month cumulative incidence rate for MCyR” value [2, 6] was 52%, the “18-month cumulative incidence rate for MMR” value [2, 6] was 26% and the CHR ([2]; CML-CP, 10 mg BID, 0 evaluable subjects, as of August 24, 2023) was 0 n (%). For the same compound, the CCyR [2, 7] was 1 (50.0) n (%), the MCyR [2, 7] was 2 (100) n (%) and the MMR [2, 7] was 1 (50.0) n (%). The CHR ([2]; CML-CP, 20 mg BID, 2 evaluable subjects, as of August 24, 2023) was 2 (100) n (%), the CCyR [2, 8] was 2 (66.7) n (%) and the MCyR [2, 8] was 2 (66.7) n (%). The MMR [2, 8] was 0 n (%), the CCyR [2, 9] was 0 n (%) and the CHR [2, 9] was 1 (100) n (%). For the same compound, the MCyR [2, 9] was 0 n (%), the MMR [2, 9] was 0 n (%) and the CHR ([2]; CML-CP, 40 mg QD, 7 evaluable subjects, as of August 24, 2023) was 6 (85.7) n (%). For the same compound, the CCyR [2, 10] was 5 (33.3) n (%), the MCyR [2, 10] was 5 (33.3) n (%) and the MMR ([2]; CML-CP, 40 mg QD, 17 evaluable subjects, as of August 24, 2023) was 3 (17.6) n (%). The CHR ([2]; CML-CP, 40 mg/day Total, 9 evaluable subjects, as of August 24, 2023) was 8 (88.9) n (%), the CCyR [2, 11] was 7 (38.9) n (%) and the MCyR [2, 11] was 7 (38.9) n (%). The MMR ([2]; CML-CP, 40 mg/day Total, 20 evaluable subjects, as of August 24, 2023) was 3 (15.0) n (%), the CHR ([2]; CML-CP, 80 mg BID, 2 evaluable subjects, as of August 24, 2023) was 2 (100) n (%) and the CCyR [2, 12] was 1 (33.3) n (%). The MCyR [2, 12] was 1 (33.3) n (%), the MMR [2, 12] was 1 (33.3) n (%) and the CCyR [2, 13] was 1 (50.0) n (%). For the same compound, the MCyR [2, 13] was 1 (50.0) n (%), the MMR [2, 13] was 0 n (%) and the CHR ([2]; CML-CP, 80 mg QD, 3 evaluable subjects, as of August 24, 2023) was 3 (100) n (%). For the same compound, the CCyR [2, 14] was 1 (33.3) n (%), the MCyR [2, 14] was 1 (33.3) n (%) and the MMR [2, 14] was 0 n (%). The CHR ([2]; CML-CP, 80 mg/day Total, 4 evaluable subjects, as of August 24, 2023) was 4 (100) n (%), the CCyR [2, 15] was 1 (100) n (%) and the CHR [2, 15] was 1 (100) n (%). For the same compound, the MCyR [2, 15] was 1 (100) n (%), the MMR [2, 15] was 1 (100) n (%) and the CHR ([2]; CML-CP, 160 mg/day Total, 3 evaluable subjects, as of August 24, 2023) was 3 (100) n (%). For the same compound, the CCyR [2, 16] was 2 (50.0) n (%), the MCyR [2, 16] was 2 (50.0) n (%) and the MMR [2, 16] was 2 (50.0) n (%). The CHR ([2]; CML-CP, 240 mg QD, 19 evaluable subjects, as of August 24, 2023) was 17 (89.5) n (%), the CCyR [2, 17] was 9 (29.0) n (%) and the MCyR [2, 17] was 11 (35.5) n (%). The MMR ([2]; CML-CP, 240 mg QD, 33 evaluable subjects, as of August 24, 2023) was 4 (12.1) n (%), the CHR ([2]; CML-CP, Total, all dose groups, 35 evaluable subjects, as of August 24, 2023) was 32 (91.4) n (%) and the CCyR [2, 18] was 20 (34.5) n (%). The MCyR [2, 18] was 23 (39.7) n (%) and the MMR ([2]; CML-CP, Total, all dose groups, 62 evaluable subjects, as of August 24, 2023) was 10 (16.1) n (%).
